Assay results: patent publication US12708640B2, “Synergistic nutritional compositions for treating vestibular associated neurodegenerative diseases” (CELAGENEX RESEARCH (INDIA) PVT. LTD., priority 2021, dated 2026)

Assays:
Type in all cases: in vivo, Albino Wistar rat
[1] = tested on: sodium arsanilate induced vestibular dysfunction (Vertigo disorder) in wistar rats; test: Contact righting reflex
Description: (§1) “Evaluation of test substance on sodium arsanilate induced vestibular dysfunction (Vertigo disorder) in wistar rats”.
(§2) Vestibular dysfunction was induced in rats by intratympanic injection of sodium arsanilate an ototoxic compound. Sodium arsanilate is an arsenic derivative and intratympanic injection result was vestibular nerve degeneration in brain stem with concomitant loss of labyrinthine righting and reduced postural support with exaggerated head dorsiflexion.
(§3) All the animals were acclimatized for at least 5 days under controlled environmental condition. Total 42 animals were divided into seven groups consisting of 6 animals per group. Normal control (G1) group receiving vehicle, disease control (G2) group receiving sodium arsanilate injection only, standard group (G3) receiving reference standard (vertin) and treatment groups G4, G5, G6 & G7 were treated with the test substances. All the groups (except normal control group) were induced with sodium arsanilate via intratymphanic injection. All the treatment groups were administered daily for 7 consecutive days.
The rats were placed in a syringe core tube in a supine position, following which the recovery time for position correction to be recorded. Normal rats turned over their body position in a few seconds.

[2] = tested on: sodium arsanilate induced vestibular dysfunction (Vertigo disorder) in wistar rats; test: Open field test
Description: as §1, §2, §3
The open-field was circular, with a diameter of 90 cm, and enclosed by a wall 30 cm high. The floor and wall of the open-field was black and the floor was divided into 25 equal area sections by thin white lines. The floor was covered with a transparent plastic coating. The open-field apparatus was located inside a large wooden frame which surrounded on all sides by black curtains. The field was illuminated by two 60-W fluorescent lights located 100 cm above the floor.
At the start of each session the rats were placed in one of the peripheral sections of the open-field and the animal's behavior was monitored by an observer for 10 consecutive minutes. […] At the end of each session the rat was returned to its home cage and the floor of the open-field was cleaned and sponged over with a weak vinegar solution to remove any residual odors.

[3] = Rat body weight in the sodium arsanilate vestibular dysfunction study; details: rats, group value
Description: as §1
(§4) • Test Species: Rat • Strain: Albino Wistar • Sex: Male/Female • Age: 6-8 Weeks • Body Weight: 180-200 g • Source: In house breed • Total No. of Animals: 42 Animals (7 groups of 6 animals each) • Feed: Normal chow diet (Purina lab diet 5L79 Rat and Mouse 18%) (PMI Nutrition International) Environmental Conditions:
as §3
Individual body weights were recorded at receipt, on the day of randomization, on the first day of treatment before dosing and weekly once thereafter throughout the treatment period. The body weight changes for all the animals were calculated and reported along with the body weight data.

[4] = tested on: sodium arsanilate induced vestibular dysfunction (Vertigo disorder) in wistar rats; test: Air righting reflex (air reflecting index)
Description: as §1, §2, §3
A sponge was spread on a flat surface and the animals were placed in a supine position in the air 50 cm away above the sponge, following which the animal was dropped horizontally.
Four-legged smooth landing on the ground was considered as positive (normal animal), whereas the body or other regions landing first was considered vestibular dysfunction animals. The positive landing rate (%) of each rat in each group was recorded.

[5] = Rat feed consumption in the sodium arsanilate vestibular dysfunction study; details: rats, group value
Description: as §1, §4, §3
The feed consumption was calculated and reported on a daily basis throughout the study period.

[6] = open field test, wrt. disease control G2

O=c1ccn([C@@H]2O[C@H](COP(=O)(O)O)[C@@H](O)[C@H]2O)c(=O)[nH]1 [Group 5, Uridine monophosphate]
Contact righting reflex (time) ([1]; animal 1, recovery time for position correction): 30 s
Contact righting reflex (time) ([1]; animal 2, recovery time for position correction): 29 s
Contact righting reflex (time) ([1]; animal 3, recovery time for position correction): 28 s
Contact righting reflex (time) ([1]; animal 4, recovery time for position correction): 27 s
Contact righting reflex (time) ([1]; animal 5, recovery time for position correction): 30 s
Contact righting reflex (time) ([1]; animal 6, recovery time for position correction): 26 s
Contact righting reflex (time), Average ([1]; group average of 6 animals): 28.33 s
contact righting reflex, improvement (wrt. the Disease Control) ([1]; wrt. the Disease Control): ≤ 30%
Ambulation Score [the number of open-field sections entered by the rat] ([2]; animal 1): 200
Defecation [the number of fecal boli deposited in the open-field] ([2]; animal 1): 4
Grooming [the number of grooming bouts exhibited by the rat] ([2]; animal 1): 2
Rearing Responses [the number of times the animal raised both forefeet off the floor and extended its body] ([2]; animal 1): 3
Ambulation Score [the number of open-field sections entered by the rat] ([2]; animal 2): 180
Defecation [the number of fecal boli deposited in the open-field] ([2]; animal 2): 2
Grooming [the number of grooming bouts exhibited by the rat] ([2]; animal 2): 4
Rearing Responses [the number of times the animal raised both forefeet off the floor and extended its body] ([2]; animal 2): 4
Ambulation Score [the number of open-field sections entered by the rat] ([2]; animal 3): 190
Defecation [the number of fecal boli deposited in the open-field] ([2]; animal 3): 3
Grooming [the number of grooming bouts exhibited by the rat] ([2]; animal 3): 3
Rearing Responses [the number of times the animal raised both forefeet off the floor and extended its body] ([2]; animal 3): 3
Ambulation Score [the number of open-field sections entered by the rat] ([2]; animal 4): 160
Defecation [the number of fecal boli deposited in the open-field] ([2]; animal 4): 4
Grooming [the number of grooming bouts exhibited by the rat] ([2]; animal 4): 3
Rearing Responses [the number of times the animal raised both forefeet off the floor and extended its body] ([2]; animal 4): 4
Ambulation Score [the number of open-field sections entered by the rat] ([2]; animal 5): 200
Defecation [the number of fecal boli deposited in the open-field] ([2]; animal 5): 3
Grooming [the number of grooming bouts exhibited by the rat] ([2]; animal 5): 4
Rearing Responses [the number of times the animal raised both forefeet off the floor and extended its body] ([2]; animal 5): 3
Ambulation Score [the number of open-field sections entered by the rat] ([2]; animal 6): 190
Defecation [the number of fecal boli deposited in the open-field] ([2]; animal 6): 4
Grooming [the number of grooming bouts exhibited by the rat] ([2]; animal 6): 4
Rearing Responses [the number of times the animal raised both forefeet off the floor and extended its body] ([2]; animal 6): 4
Ambulation Score [the number of open-field sections entered by the rat], Average ([2]; group average of 6 animals): 186.67
Defecation [the number of fecal boli deposited in the open-field], Average ([2]; group average of 6 animals): 3.33
Grooming [the number of grooming bouts exhibited by the rat], Average ([2]; group average of 6 animals): 3.33
Rearing Responses [the number of times the animal raised both forefeet off the floor and extended its body], Average ([2]; group average of 6 animals): 3.50
% Improvement in Ambulation score wrt. G2 [2, 6]: 25.83%
% Improvement in Defecation wrt. G2 [2, 6]: 23.08%
% Improvement in Grooming wrt. G2 [2, 6]: 57.45%
% Improvement in Rearing Responses wrt. G2 [2, 6]: 32.81%
Body Weight, End of the treatment ([3]; after 7 days daily treatment): 190.08 gm
Body Weight, Initial ([3]; initial): 189.02 gm
Air Righting Reflex (% successfully righted within 5 s) ([4]; animal 1): 40%
Air Righting Reflex, Successful out of 5 ([4]; animal 1, end of 7-day treatment): 2
Air Righting Reflex (% successfully righted within 5 s) ([4]; animal 2): 40%
Air Righting Reflex, Successful out of 5 ([4]; animal 2, end of 7-day treatment): 2
Air Righting Reflex (% successfully righted within 5 s) ([4]; animal 3): 20%
Air Righting Reflex, Successful out of 5 ([4]; animal 3, end of 7-day treatment): 1
Air Righting Reflex (% successfully righted within 5 s) ([4]; animal 4): 40%
Air Righting Reflex, Successful out of 5 ([4]; animal 4, end of 7-day treatment): 2
Air Righting Reflex (% successfully righted within 5 s) ([4]; animal 5): 20%
Air Righting Reflex, Successful out of 5 ([4]; animal 5, end of 7-day treatment): 1
Air Righting Reflex (% successfully righted within 5 s) ([4]; animal 6): 40%
Air Righting Reflex, Successful out of 5 ([4]; animal 6, end of 7-day treatment): 2
Air Righting Reflex (% of Rats that successfully righted themselves within 5 s), Average ([4]; group average of 6 animals): 33.33%
Feed Consumption, 0 day ([5]; 0 day): 15.50 gm
Feed Consumption, 7th day ([5]; 7th day): 16.67 gm
